From patent US9387206B2, “Therapeutic approaches for treating Alzheimer's disease” (PHARNEXT, priority 2009, dated 2016)

Columns and labels:
Format in all cases: cell-based
[1] = system: rat primary cortical neurons; assay: LDH release, human Aβ1-42 toxicity on rat primary cortical cells
Method: Primary rat cortical neurons are cultured as described previously.
Briefly, Aβ1-42 peptide was reconstituted in defined culture medium at 40 μM (mother solution) and was slowly shacked at +37° C. for 3 days in the dark for aggregation. The control medium was prepared in the same conditions.
After 10 days of neuron culture, the drug was solved in culture medium (+0.1% DMSO) and then pre-incubated with neurons for 1 hour before the Aβ1-42 application (in a final volume per culture well of 100 μl). […] Cortical neurons were intoxicated for 24 hours. Three separate cultures were performed per condition, 6 wells per condition.
Estradiol-β at 100 and 150 nM were used as a reference test compound and BDNF at 50 ng/ml was used as a positive control. Three separate cultures were performed per condition, […].
Estradiol-β and BDNF were solved in culture medium and pre-incubated for 1 h before the aggregated amyloid-β1-42 application.
Lactate Dehydrogenase (LDH) Activity Assay
This colorimetric assay for the quantification of cell toxicity is based on the measurement of lactate dehydrogenase (LDH) activity released from the cytosol of dying cells into the supernatant.
All values are expressed as mean±s.e.mean of the 3 cultures (n=6 per condition). Statistical analyses were done on the different conditions (ANOVA followed by the Dunnett's test when it was allowed, Statview software version 5.0).

[2] = system: human brain microvascular endothelial cells (HBMEC); assay: Total length of capillary network in human Aβ1-42 intoxicated HBMEC cultures; details: for Effect on Aβ1-42 intoxication, total length of capillary network, drug alone: alone at the concentrations used in the combination (FIGS. 8-13); for Effect on Aβ1-42 intoxication, total length of capillary network, drug alone / Prevention of Aβ1-42 intoxication, capillary network, drug alone: Aβ1-42 2.5 μM; for Prevention of Aβ1-42 intoxication, capillary network, drug alone: dose-response experiments, 18 h
Method: Human brain microvascular endothelial cell cultures were used to study the protection afforded by candidate compounds on Aβ1-42 toxicity.
Human brain microvascular endothelial cerebral cells (HBMEC, ScienCell Ref: 1000, frozen at passage 10) were rapidly thawed in a water bath at +37° C. […] On matrigel support, endothelial cerebral cells spontaneously started the process of capillary network morphogenesis (47).
Three separate cultures were performed per condition, 6 wells per condition.
The control medium was prepared in the same conditions.
The Aβ1-42 peptide was added 2 hours after HBMEC seeding on matrigel for 18 hours incubation.
Capillary Network Quantification
Per well, 2 pictures with 4× lens were taken using InCell Analyzer™ 1000 (GE Healthcare) in light transmission. All images were taken in the same conditions. Analysis of the angiogenesis networks was done using Developer software (GE Healthcare). The total length of capillary network was assessed.
All values are expressed as mean±s.e.mean of the 3 cultures (n=6 per condition). Statistical analyses were done on the different conditions performing an ANOVA followed by the Dunnett's test when it was allowed (Statview software version 5.0). The values (as %) inserted on the graphs show the amyloid toxicity evolution. Indeed, the amyloid toxicity was taken as the 100% and the test compound effect was calculated as a % of this amyloid toxicity.

[3] = system: rat endothelial cerebral cells; assay: LDH release from rat endothelial cerebral cells, beta-amyloid (Aβ25-35) toxicity; details: for Prevention of Aβ25-35 intoxication, LDH release: Aβ25-35 30 μM, 3 days, drug added 1 hour before
Method: Primo culture of rat endothelial cerebral cells (Vect-Horus SAS, Marseille) is cultivated on passage 0. At confluence, endothelial cells are dissociated with trypsin EDTA (Pan Biotech Ref: P10-023100). Cells are seeded at a density of 25,000 cells/well in 96-well plates (wells are coated with 30 μl of type I rat collagen at 1.5 mg/ml, Vect-Horus SAS, Marseille) and are cultured in MCBD 131 medium (M-131-500, Invitrogen) supplemented with 1% of microvascular growth supplement (MVGS, S-005-25, Invitrogen). Cells are cultured at 37° C. in a humidified air (95%)/CO2(5%) atmosphere. Half of the medium is changed every other day with fresh medium.
After 4 days, drugs are added to the cell culture medium, at different concentrations, solved in DMSO 0.1% or water.
Cells are then intoxicated with 30 μM of β-amyloid (25-35; Sigma) together with drugs in the same culture medium. Cells are then intoxicated for 3 days.
For each culture, after 3 days of intoxication, the supernatant is collected and analyzed with the Cytotoxicity Detection Kit (LDH, Roche Applied Sciences). This colorimetric assay for the quantification of cell death is based on the measurement of lactate dehydrogenase (LDH) activity released from the cytosol of damaged cells into the supernatant. The optic density (DO) is assessed by spectrophotometer at 492 nm wavelength by a multiscan apparatus (Thermo, Ref Ascent).
Results presented in FIG. 3 are extracted from two independent cultures, 6 wells per condition. All values are expressed as mean±s.e.m. A bilateral Student's t test analysis is performed on raw data. Results are expressed in percentage of cell viability, compared to the control (vehicle).
Drugs are incubated with rat primary cerebral endothelial cells for one hour before Aβ25-35 30 μM intoxication that lasts 3 days.
Three days after this incubation, LDH release in the culture medium is quantified, reflecting the level of cell death.

[4] = drug pretreatment, concentration not given

| Molecule | LDH release, prevention of Aβ1-42 intoxication [1, 4] [%] | Effect on Aβ1-42 intoxication, total length of capillary network, drug alone [2] | Prevention of Aβ1-42 intoxication, capillary network, drug alone [2] | further results |
| --- | --- | --- | --- | --- |
| NCC(CC(=O)O)c1ccc(Cl)cc1 (racemic) [Baclofen] | −86 | no significant effect | significantly prevented | – |
| NCCCCCC(=O)O [Aminocaproic acid, Aminocaproic Acid] | – | no significant effect | – | – |
| NCC(CC(=O)O)c1ccc(Cl)cc1 (stereo not drawn) [Baclofen (−), Baclofen] | – | – | – | Prevention of Aβ25-35 intoxication, LDH release [3]: significantly prevented |
| CCN(CC)C(=O)N1CCN(C)CC1 [Carbamazine] | – | – | – | Effect on Aβ1-42 intoxication, LDH release, drug alone ([1]; 0.32 nM alone, Aβ1-42 2.5 μM): no significant effect; LDH release, prevention of Aβ1-42 intoxication ([1]; 40 nM, Aβ1-42 10 μM): −68%; Protective effect against toxicity of Aβ peptide 1-42, drug alone ([1]; 40 nM, primary cortical neuron cells): strong protective effect |
| CC1(C)[C@@H](OC(=O)CCC(=O)O)CC[C@]2(C)[C@H]3C(=O)C=C4[C@@H]5C[C@@](C)(C(=O)O)CC[C@]5(C)CC[C@@]4(C)[C@]3(C)CC[C@@H]12 [Carbenoxolone] | −39 | – | – | – |
| C(=C\c1ccccc1)/CN1CCN(C(c2ccccc2)c2ccccc2)CC1 [Cinnarizine] | −50 | – | – | – |
| CCOC(=O)c1cncn1[C@H](C)c1ccccc1 [Etomidate] | −50 | – | – | – |
| C[C@@H]1CC(=O)NN=C1c1ccc(NN=C(C#N)C#N)cc1 [Levosimendan] | −47 | no significant effect | significantly prevented | Protective effect against toxicity of Aβ peptide 1-42, drug alone ([2]; 8 nM, HBMEC): strong protective effect |
| CN(C/C=C/C#CC(C)(C)C)Cc1cccc2ccccc12 [Terbinafine] | – | no significant effect | significantly prevented | Prevention of Aβ25-35 intoxication, LDH release [3]: significantly prevented; Spontaneous cell death in the culture medium ([3]; LDH release, rat endothelial cerebral cells): decrease spontaneous cell death |
| brain-derived neurotrophic factor (protein, UniProt P23560 19-247, looked up, positive control for neuroprotection at 50 ng/ml) Neurotrophic factor BDNF …: APMKEANIRGQGGLAYPGVRTHGTLESVNGPKAGSRGLTSLADTFEHVIEELLDEDQKVRPNEENNKDADLYTSRVMLSSQVPLEPPLLFLLEEYKNYLDAANMSMRVRRHSDPARRGELSVCDSISEWVTAADKKTAVDMSGGTVTVLEKVPVSKGQLKQYFYETKCNPMGYTKEGCRGIDKRHWNSQCRTTQSYVRALTMDSKKRIGWRFIRIDTSCVCTLTIKRGR | – | – | – | LDH release, protection from amyloid injury ([1]; BDNF 50 ng/ml, 1 hr pre-treatment, Aβ1-42): −62% |
